According to publication PMC7593677, “Discovery of N-(2-Amino-4-Fluorophenyl)-4-[bis-(2-Chloroethyl)-Amino]-Benzamide as a Potent HDAC3 Inhibitor” (Frontiers in Oncology, 2020):
Like-named read-outs stand apart in the source and are kept apart here. Values belong to the molecule of their own block, whether it stands above or below them.

What was measured:
[1] = test system: HepG2 cells; settings: 6 h
Procedure: (§5) Following 6-h incubation, cells were washed twice with cold PBS and then fixed in 70% precooled ethanol at 4°C for 12 h. The fixed cells were washed again and then stained with PI/RNase A for 30 min at room temperature.

[2] = test system: HepG2 cells; test: Cell cycle analysis (PI, flow cytometry); settings: 6 h; for Percentage of cells in G2/M phase (third peak): HepG2
Procedure: as §5

[3] = test system: H460 cells; test: Antiproliferative MTT assay; format: cell-based; settings: Homo sapiens, NCI-H460, 48 h, read-out: Antiproliferative IC50
Procedure: (§1) […]. The stock solutions of compounds to be tested were prepared in culture medium. Tumor cell lines were cultured in 96-well plates at a density of 5 × 10^3 cells per well and incubated until 90–95% confluence, and then each well received 100 μL medium containing desired concentrations of test compounds, and then incubated at 37°C and 5% CO2 for 48 h. To determine cell viability, 20 μL MTT working solution (5 mg/mL) was then added to each well and incubated for another 4 h. After this incubation, the medium was carefully aspirated, and 200 μL dimethyl sulfoxide (DMSO) was added to each well and vibrated for 10 min to make sure formed formazans were completely dissolved. The optical densities (ODs) at 490 and 630 nm were counted by Universal Microplate Spectrophotometer. […] Origin 7.5 software was used to calculate the IC50 values from at least three independent experiments.

[4] = test system: SW480 cells; test: Antiproliferative MTT assay; format: cell-based; settings: Homo sapiens, SW480, 48 h, read-out: Antiproliferative IC50
Procedure: as §1

[5] = test system: HepG2 cells; test: Cell apoptosis assay (annexin V-FITC/PI, flow cytometry); format: cell-based, human; settings: 24 h, normal group 5.83%
Procedure: Then cells were washed with PBS, collected, and resuspended with binding buffer from a commercially available annexin V–FITC kit (Thermo Fisher Co., USA) and mixed with 5 μL of annexin V–FITC gently. Following 10 min of incubation, 1 μL of propidium iodide was added to the samples and incubated for another 20 min while avoiding light. Flow cytometry was used to determine cell apoptosis status (CytoFLEX, Beckman Coulter).

[6] = test system: HepG2 cells; test: Drug combination analysis (MTT assay); format: cell-based; settings: Homo sapiens, 48 h, read-out: Percentage inhibition rate (PIR)
Procedure: The efficacy of drug combination of FNA with taxol and camptothecin was evaluated via cell viability assay (MTT assay). The stock solutions of tested compounds were diluted to the desired concentrations with culture medium. The cells were cultured in 96-well plates at a density 5 × 10^3 cells per well and incubated until 90–95% confluence, and then 100 μL of medium containing desired concentrations of test compounds was added to the wells. Following 48-h incubation, 10 μL of MTT working solution was added to each well and incubated for another 4 h. After removal of the medium, 200 μL DMSO was added to each well to dissolve the formed formazan. The plates were vortexed for 10 min to ensure complete dissolution. Then the OD was acquired with a microplate reader at 490 and 630 nm.

[7] = test system: HepG2 xenograft; test: In vivo antitumor activity, HepG2 xenograft nude mice model; settings: 100 mg/kg once a day for 15 days
Procedure: When the tumor is prominent, the BALB/c female mice were randomly assigned into control and treatment groups (six mice per group).
Injected mice were kept for 10 days; those with palpable tumors were then randomly assigned into treatment and control groups (six mice per group). The treatment groups were administrated with 100 mg/kg/d test compound intragastrically, whereas the control group was administered with an equal volume of phosphate-buffered saline (PBS) solution. The tumor size and body weight were assessed every day. After 15 days of treatment, the mice were euthanized, and tumor weights were acquired with an electronic balance.

[8] = test system: A549 cells; test: Antiproliferative MTT assay; format: cell-based; settings: Homo sapiens, A549, 48 h, read-out: Antiproliferative IC50
Procedure: as §1

[9] = test system: H322 cells; test: Antiproliferative MTT assay; format: cell-based; settings: Homo sapiens, NCI-H322, 48 h, read-out: Antiproliferative IC50
Procedure: (§2) The stock solutions of compounds to be tested were prepared in culture medium. […] To determine cell viability, 20 μL MTT working solution (5 mg/mL) was then added to each well and incubated for another 4 h. After this incubation, the medium was carefully aspirated, and 200 μL dimethyl sulfoxide (DMSO) was added to each well and vibrated for 10 min to make sure formed formazans were completely dissolved. The optical densities (ODs) at 490 and 630 nm were counted by Universal Microplate Spectrophotometer. […] Origin 7.5 software was used to calculate the IC50 values from at least three independent experiments.

[10] = test system: OS-RC-2 cells; test: Antiproliferative MTT assay; format: cell-based; settings: Homo sapiens, OS-RC-2, 48 h, read-out: Antiproliferative IC50
Procedure: as §2

[11] = test system: FTC-133 cells; test: Antiproliferative MTT assay; format: cell-based; settings: Homo sapiens, FTC-133, 48 h, read-out: Antiproliferative IC50
Procedure: as §2

[12] = test system: U937 cells; test: Antiproliferative MTT assay; format: cell-based; settings: Homo sapiens, U-937, 48 h, read-out: Antiproliferative IC50
Procedure: as §2

[13] = test system: U266 cells; test: Antiproliferative MTT assay; format: cell-based; settings: Homo sapiens, U-266, 48 h, read-out: Antiproliferative IC50
Procedure: as §2

[14] = test system: MDA-MB-231 cells; test: Antiproliferative MTT assay; format: cell-based; settings: Homo sapiens, MDA-MB-231, 48 h, read-out: Antiproliferative IC50
Procedure: as §2

[15] = test system: SW579 cells; test: Antiproliferative MTT assay; format: cell-based; settings: Homo sapiens, SW579, 48 h, read-out: Antiproliferative IC50
Procedure: as §2

[16] = test system: Hela cells; test: Antiproliferative MTT assay; format: cell-based; settings: Homo sapiens, 48 h, read-out: Antiproliferative IC50
Procedure: as §2

[17] = test system: K562 cells; test: Antiproliferative MTT assay; format: cell-based; settings: Homo sapiens, K562, 48 h, read-out: Antiproliferative IC50
Procedure: as §2

[18] = test system: A2780 cells; test: Antiproliferative MTT assay; format: cell-based; settings: Homo sapiens, A2780, 48 h, read-out: Antiproliferative IC50
Procedure: as §2

[19] = test system: SK-NEP-1 cells; test: Antiproliferative MTT assay; format: cell-based; settings: Homo sapiens, SK-NEP-1, 48 h, read-out: Antiproliferative IC50
Procedure: as §2

[20] = target: T1, HDAC3 (Homo sapiens, UniProt O15379); test: biochemical; format: biochemical
T1 construct: purchased BPS Bioscience
T1 sequence (O15379 whole entry): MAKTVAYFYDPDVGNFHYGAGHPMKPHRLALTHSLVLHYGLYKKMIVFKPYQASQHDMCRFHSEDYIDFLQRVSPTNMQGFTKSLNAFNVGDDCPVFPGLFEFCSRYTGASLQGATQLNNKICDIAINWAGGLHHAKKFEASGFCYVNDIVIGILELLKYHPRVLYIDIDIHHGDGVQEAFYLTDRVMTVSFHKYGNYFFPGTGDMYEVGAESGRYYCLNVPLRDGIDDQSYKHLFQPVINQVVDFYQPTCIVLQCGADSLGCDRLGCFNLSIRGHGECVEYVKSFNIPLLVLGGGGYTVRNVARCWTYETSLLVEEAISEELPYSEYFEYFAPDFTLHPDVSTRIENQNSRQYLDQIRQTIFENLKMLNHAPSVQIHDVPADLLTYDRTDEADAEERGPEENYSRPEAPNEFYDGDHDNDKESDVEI
T1 sequence (Q9Y618 395-489 partner limits assumed): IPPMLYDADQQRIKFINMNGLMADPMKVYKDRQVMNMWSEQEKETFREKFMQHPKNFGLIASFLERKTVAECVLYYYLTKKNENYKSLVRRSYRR
Procedure: (§3) All of the HDAC enzymes tested were purchased from BPS Bioscience. First, 20 μL of each recombinant HDAC enzyme solution (HDAC1, 2, 3, 4, 6, 7, 8, and 9) was mixed with various concentrations of tested compound samples (20 μL) in a 96-well plate. The mixture was incubated at 30°C for 1 h for the dose-dependent assay. Additionally, mixtures were incubated for 15, 30, 60, and 90 min, for the time-dependent assay, and then 10 μL of fluorogenic substrate [3 mM Boc-Lys(acetyl)-AMC or Boc-Lys (trifluoroacetyl)-AMC for HDAC1/2/3/6 or HDAC4/7/8/9, respectively] was added. Then, the acetylation reaction was initiated by adding HDAC substrate working solution and incubating at 30°C for 2 h. After the desired time, 10 μL developer with trypsin and trichostatin A was added to stop the reaction, and then the mixture was incubated at 30°C for another 30 min.
(§4) A microplate reader was used to determine fluorescence intensity at excitation: 360 nm and emission: 460 nm. The inhibition ratios were calculated by comparing the fluorescence intensities from tested wells to those of controls. The IC50 curves and values were then obtained with GraphPad Prism 6.0 software.

[21] = target: T2, HDAC4 (Homo sapiens, UniProt P56524); test: biochemical
T2 construct: purchased BPS Bioscience
Procedure: as §3, §4

[22] = target: T3, HDAC2 (Homo sapiens, UniProt Q92769); test: biochemical; settings: recombinant enzyme, n ≥ 2, SD <10% of mean
T3 construct: purchased BPS Bioscience
T3 sequence (Q92769 whole entry): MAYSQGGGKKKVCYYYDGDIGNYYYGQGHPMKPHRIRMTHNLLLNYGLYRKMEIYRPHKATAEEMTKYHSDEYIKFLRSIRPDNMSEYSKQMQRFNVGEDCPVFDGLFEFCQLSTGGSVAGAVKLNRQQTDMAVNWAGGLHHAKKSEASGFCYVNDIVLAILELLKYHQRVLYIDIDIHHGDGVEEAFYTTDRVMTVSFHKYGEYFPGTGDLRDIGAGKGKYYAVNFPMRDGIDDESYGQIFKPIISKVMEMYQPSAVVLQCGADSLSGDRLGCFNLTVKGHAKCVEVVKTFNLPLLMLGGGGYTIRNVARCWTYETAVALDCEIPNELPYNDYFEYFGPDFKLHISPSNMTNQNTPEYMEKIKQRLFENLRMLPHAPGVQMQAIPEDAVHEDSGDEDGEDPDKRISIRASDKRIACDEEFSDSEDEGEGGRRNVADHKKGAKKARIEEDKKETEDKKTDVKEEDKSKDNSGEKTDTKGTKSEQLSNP
Procedure: as §3, §4

[23] = target: T4, HDAC9 (Homo sapiens, UniProt Q9UKV0); test: biochemical
T4 construct: purchased BPS Bioscience
T4 sequence (Q9UKV0 whole entry): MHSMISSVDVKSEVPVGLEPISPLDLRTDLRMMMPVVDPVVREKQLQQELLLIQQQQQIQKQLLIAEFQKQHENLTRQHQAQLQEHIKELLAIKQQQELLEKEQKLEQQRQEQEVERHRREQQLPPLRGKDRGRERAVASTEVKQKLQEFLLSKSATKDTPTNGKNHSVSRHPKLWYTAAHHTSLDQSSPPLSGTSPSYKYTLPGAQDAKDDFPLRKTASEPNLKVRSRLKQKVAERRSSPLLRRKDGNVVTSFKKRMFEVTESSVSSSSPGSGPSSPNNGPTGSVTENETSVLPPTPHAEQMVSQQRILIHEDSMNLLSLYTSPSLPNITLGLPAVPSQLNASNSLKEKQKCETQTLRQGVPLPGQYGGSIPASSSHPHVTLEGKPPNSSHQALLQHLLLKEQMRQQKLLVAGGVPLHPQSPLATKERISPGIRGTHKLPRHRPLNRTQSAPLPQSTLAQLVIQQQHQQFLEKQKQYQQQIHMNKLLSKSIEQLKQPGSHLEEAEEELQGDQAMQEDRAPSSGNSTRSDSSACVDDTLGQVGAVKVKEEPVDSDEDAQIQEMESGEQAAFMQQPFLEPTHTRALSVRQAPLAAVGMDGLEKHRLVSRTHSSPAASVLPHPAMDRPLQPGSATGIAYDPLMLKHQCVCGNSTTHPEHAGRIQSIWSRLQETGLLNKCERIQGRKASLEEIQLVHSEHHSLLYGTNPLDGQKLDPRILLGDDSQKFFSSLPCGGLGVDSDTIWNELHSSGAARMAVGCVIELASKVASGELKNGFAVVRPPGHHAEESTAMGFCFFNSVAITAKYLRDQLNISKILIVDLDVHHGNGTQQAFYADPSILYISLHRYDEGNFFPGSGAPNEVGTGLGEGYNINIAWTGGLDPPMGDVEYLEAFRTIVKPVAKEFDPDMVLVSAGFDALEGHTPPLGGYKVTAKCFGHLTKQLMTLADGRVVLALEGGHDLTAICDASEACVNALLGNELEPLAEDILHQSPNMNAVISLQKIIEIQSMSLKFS
Procedure: as §3, §4

[24] = target: T5, HDAC8 (Homo sapiens, UniProt Q9BY41); test: biochemical
T5 construct: purchased BPS Bioscience
T5 sequence (Q9BY41 whole entry): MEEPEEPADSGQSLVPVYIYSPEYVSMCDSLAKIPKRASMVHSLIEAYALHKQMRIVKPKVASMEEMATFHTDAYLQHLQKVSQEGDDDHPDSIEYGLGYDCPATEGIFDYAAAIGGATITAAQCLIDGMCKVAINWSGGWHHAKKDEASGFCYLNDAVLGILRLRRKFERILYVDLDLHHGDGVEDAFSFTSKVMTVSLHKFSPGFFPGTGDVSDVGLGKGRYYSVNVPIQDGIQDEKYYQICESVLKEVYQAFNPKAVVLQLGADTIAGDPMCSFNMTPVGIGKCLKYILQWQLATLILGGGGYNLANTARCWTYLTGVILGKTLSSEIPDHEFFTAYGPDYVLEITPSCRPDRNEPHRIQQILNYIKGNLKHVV
Procedure: as §3, §4

[25] = target: T6, HDAC7 (Homo sapiens, UniProt Q8WUI4); test: HDAC enzyme inhibition assay (fluorogenic substrate); format: biochemical; settings: recombinant enzyme, n ≥ 2, SD <10% of mean
T6 construct: purchased BPS Bioscience
T6 sequence (Q8WUI4 whole entry): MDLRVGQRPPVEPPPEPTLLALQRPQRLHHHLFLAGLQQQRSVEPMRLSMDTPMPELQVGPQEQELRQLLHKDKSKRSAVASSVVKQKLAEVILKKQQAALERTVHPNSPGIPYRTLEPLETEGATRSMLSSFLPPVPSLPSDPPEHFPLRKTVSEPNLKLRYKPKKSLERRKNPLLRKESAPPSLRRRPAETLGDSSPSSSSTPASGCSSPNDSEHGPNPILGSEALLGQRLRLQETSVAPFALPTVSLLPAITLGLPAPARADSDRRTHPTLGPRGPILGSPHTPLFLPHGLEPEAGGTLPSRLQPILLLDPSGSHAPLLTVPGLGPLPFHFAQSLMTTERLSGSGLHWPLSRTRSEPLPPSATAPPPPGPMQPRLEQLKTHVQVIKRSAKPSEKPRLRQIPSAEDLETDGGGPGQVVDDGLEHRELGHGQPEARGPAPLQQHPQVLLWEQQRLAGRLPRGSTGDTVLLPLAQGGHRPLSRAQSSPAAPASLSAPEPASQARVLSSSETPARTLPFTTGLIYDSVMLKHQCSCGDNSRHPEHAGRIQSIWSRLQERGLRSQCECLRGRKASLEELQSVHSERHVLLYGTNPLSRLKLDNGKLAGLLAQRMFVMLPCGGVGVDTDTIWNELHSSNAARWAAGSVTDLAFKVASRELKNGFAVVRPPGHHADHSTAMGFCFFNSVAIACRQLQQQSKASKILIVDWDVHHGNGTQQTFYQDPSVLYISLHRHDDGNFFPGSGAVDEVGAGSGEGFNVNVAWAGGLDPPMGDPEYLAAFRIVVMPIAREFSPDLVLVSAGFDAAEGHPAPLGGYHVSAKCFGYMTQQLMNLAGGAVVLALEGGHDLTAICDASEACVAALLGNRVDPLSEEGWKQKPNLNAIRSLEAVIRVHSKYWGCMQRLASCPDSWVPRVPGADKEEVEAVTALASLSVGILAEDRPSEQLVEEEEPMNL
Procedure: as §3, §4

[26] = target: T7, HDAC1 (Homo sapiens, UniProt Q13547); test: as above; format: biochemical; settings: recombinant enzyme, n ≥ 2, SD <10% of mean
T7 construct: purchased BPS Bioscience
T7 sequence (Q13547 whole entry): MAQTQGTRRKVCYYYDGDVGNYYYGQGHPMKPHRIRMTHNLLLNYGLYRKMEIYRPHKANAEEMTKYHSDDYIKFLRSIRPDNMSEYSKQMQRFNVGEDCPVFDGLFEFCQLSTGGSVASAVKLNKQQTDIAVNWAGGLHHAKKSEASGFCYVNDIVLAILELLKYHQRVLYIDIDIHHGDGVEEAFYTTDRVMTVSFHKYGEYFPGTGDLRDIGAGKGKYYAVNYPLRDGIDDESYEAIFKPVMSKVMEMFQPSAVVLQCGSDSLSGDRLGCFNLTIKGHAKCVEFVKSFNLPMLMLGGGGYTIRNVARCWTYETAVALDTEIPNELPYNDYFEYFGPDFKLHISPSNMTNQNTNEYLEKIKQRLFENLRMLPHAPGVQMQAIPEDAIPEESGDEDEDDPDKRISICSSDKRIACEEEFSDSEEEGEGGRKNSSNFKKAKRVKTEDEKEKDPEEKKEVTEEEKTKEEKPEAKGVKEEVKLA
Procedure: as §3, §4

[27] = target: T8, HDAC6 (Homo sapiens, UniProt Q9UBN7); test: as above; format: biochemical
T8 construct: purchased BPS Bioscience
T8 sequence (Q9UBN7 whole entry): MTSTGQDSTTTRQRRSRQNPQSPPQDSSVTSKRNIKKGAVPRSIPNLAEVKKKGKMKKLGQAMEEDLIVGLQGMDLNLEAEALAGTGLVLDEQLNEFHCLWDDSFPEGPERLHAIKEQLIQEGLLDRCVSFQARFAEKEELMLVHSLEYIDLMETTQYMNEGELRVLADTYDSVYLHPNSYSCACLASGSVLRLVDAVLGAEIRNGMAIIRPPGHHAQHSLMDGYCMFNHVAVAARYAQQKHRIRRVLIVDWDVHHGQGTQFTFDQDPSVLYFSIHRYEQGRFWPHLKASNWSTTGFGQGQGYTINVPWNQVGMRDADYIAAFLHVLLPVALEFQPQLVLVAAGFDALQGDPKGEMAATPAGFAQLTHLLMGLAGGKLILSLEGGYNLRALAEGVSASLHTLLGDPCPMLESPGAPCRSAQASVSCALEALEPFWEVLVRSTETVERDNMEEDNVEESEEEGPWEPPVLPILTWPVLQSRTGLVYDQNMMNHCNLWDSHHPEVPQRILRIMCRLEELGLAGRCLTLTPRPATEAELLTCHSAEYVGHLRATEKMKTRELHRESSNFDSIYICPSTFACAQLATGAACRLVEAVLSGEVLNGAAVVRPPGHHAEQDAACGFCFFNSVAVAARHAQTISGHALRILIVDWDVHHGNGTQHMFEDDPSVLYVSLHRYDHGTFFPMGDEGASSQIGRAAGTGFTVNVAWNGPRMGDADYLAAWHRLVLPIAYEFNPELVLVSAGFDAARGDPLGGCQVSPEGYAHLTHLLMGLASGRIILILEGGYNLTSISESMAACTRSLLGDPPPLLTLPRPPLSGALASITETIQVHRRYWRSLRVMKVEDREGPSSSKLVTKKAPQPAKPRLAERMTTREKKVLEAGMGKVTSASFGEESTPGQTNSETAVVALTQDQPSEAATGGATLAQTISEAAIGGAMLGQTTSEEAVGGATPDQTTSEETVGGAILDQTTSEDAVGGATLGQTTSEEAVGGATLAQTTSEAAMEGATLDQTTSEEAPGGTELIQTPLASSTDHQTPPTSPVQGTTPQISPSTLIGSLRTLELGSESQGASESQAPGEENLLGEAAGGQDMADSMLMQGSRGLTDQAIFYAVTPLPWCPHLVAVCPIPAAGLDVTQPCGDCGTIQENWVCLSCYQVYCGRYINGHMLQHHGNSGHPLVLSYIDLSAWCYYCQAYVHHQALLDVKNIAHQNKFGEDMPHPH
Procedure: as §3, §4

[28] = test system: HepG2 cells; test: Antiproliferative MTT assay; format: cell-based, human
Procedure: as §2

[29] = test system: HepG2 cells xenograft; design: method as in PMID 31543818; settings: nude mice xenograft model; cited from earlier work

IC50 [3]: 7.63 ± 0.03 µM | IC50 [4]: 2.91 ± 0.04 µM
SMILES: O=C(CCCCCCC(=O)Nc1ccccc1)NO [SAHA, Vorinostat]
Percentage of cells, first peak of cell cycle histogram (phase not given) ([1]; 0.125 μM): 57.65% | Percentage of cells, second peak of cell cycle histogram (phase not given) ([1]; 0.125 μM): 25.02% | Percentage of cells, first peak of cell cycle histogram (phase not given) ([1]; 0.25 μM): 56.26% | Percentage of cells, second peak of cell cycle histogram (phase not given) ([1]; 0.25 μM): 26.33% | Percentage of cells, first peak of cell cycle histogram (phase not given) ([1]; 0.5 μM): 64.73% | Percentage of cells, second peak of cell cycle histogram (phase not given) ([1]; 0.5 μM): 23.27% | Effect in the regulation of HepG2 cell cycle ([2]; 0.125, 0.25 and 0.5 μM): did not exhibit any effects | Apoptosis rate of HepG2 cells ([5]; 1 μM): 10.03% | Apoptosis rate of HepG2 cells ([5]; 9 μM): 12.43%

SMILES: CC(=O)O[C@H]1C(=O)[C@@]2(C)[C@H]([C@H](OC(=O)c3ccccc3)[C@]3(O)C[C@H](OC(=O)[C@H](O)[C@@H](NC(=O)c4ccccc4)c4ccccc4)C(C)=C1C3(C)C)[C@]1(OC(C)=O)CO[C@@H]1C[C@@H]2O [taxol]
inhibition at 0.1 µM ([6]; HepG2, taxol 0.1 μM alone): 57.1% | inhibition at 0.2 µM ([6]; HepG2, taxol 0.2 μM alone): 62.4%

SMILES: CC[C@@]1(O)C(=O)OCc2c1cc1n(c2=O)Cc2cc3ccccc3nc2-1 [camptothecin]
inhibition at 0.25 µM ([6]; HepG2, camptothecin 0.25 μM alone): 61.7% | inhibition at 0.5 µM ([6]; HepG2, camptothecin 0.5 μM alone): 60.9%

SMILES: Nc1cc(F)ccc1NC(=O)c1ccc(N(CCCl)CCCl)cc1 [FNA, N-(2-amino-4-fluorophenyl)-4-[bis-(2-chloroethyl)-amino]-benzamide]
Tumor growth inhibition (TGI) rate [7]: 48.89% | Percentage of cells in G2/M phase (third peak) ([2]; 0.125 μM): 18.84% | Percentage of cells in G2/M phase (third peak) ([2]; 0.5 μM): 59.36% | IC50 [3]: 4.73 ± 0.05 µM | IC50 [4]: > 100 µM | IC50 [8]: 33.74 ± 0.04 µM | IC50 [9]: 6.36 ± 0.07 µM | IC50 [10]: > 100 µM | IC50 [11]: 9.09 ± 0.13 µM | IC50 [12]: 0.55 ± 0.03 µM | IC50 [13]: 0.63 ± 0.32 µM | IC50 [14]: 35.29 ± 0.03 µM | IC50 [15]: 52.4 ± 0.13 µM | IC50 [16]: 1.41 ± 0.04 µM | IC50 [17]: 1.31 ± 0.05 µM | IC50 [18]: 4.3 ± 0.12 µM | IC50 [19]: 8.32 ± 0.18 µM | HDAC3 selectivity vs. HDAC1 ([20]; ratio of IC50 values): 8.83 fold | HDAC3 selectivity vs. HDAC2 ([20]; ratio of IC50 values): 9.94 fold | IC50 ([20]; recombinant enzyme, n ≥ 2, SD <10% of mean): 0.0955 µM | Apoptosis rate of HepG2 cells ([5]; 1 μM): 14.08% | Apoptosis rate of HepG2 cells ([5]; 3 μM): 19.11% | Apoptosis rate of HepG2 cells ([5]; 9 μM): 28.83% | IC50 [21]: > 5 µM | IC50 [22]: 0.949 µM | IC50 [23]: > 5 µM | IC50 [24]: > 5 µM | IC50 [25]: > 5 µM | IC50 [26]: 0.843 µM | IC50 [27]: > 5 µM | Potency relative to SAHA in inhibition of the growth of HepG2 cells ([28]; HepG2, ratio of IC50 values): 13.3 fold | IC50 ([28]; Homo sapiens, HepG2, 48 h, read-out: Antiproliferative IC50): 1.3 ± 0.25 µM

SMILES: Nc1ccccc1NC(=O)c1ccc(N(CCCl)CCCl)cc1 [NA, N-(2-aminophenyl)-4-(bis(2-chloroethyl)amino)benzamide]
In vivo potency compared with SAHA [29]: lower potency than SAHA
